For assay [1], the target named is T1, porcine pancreatic elastase (PPE) (Sus scrofa, UniProt P00772).
T1 construct: purchased Sigma
As to the kind of experiment: Anti-elastase assay (release of p-nitroaniline from N-succinyl-ala-ala-ala-p-nitroanilide). The assay is classed as biochemical. Particulars: n = 3; text says elastase in HaCaT cells, method uses PPE; read-out: Anti-Elastase Activity (IC50 ± SD) (converted). On the procedure: All reagents, solvents, silica gel for TLC and silica gel for column chromatography were purchased from Sigma-Aldrich (Pty) Ltd. (Johannesburg, South Africa) and Merck (Pty) Ltd. (Johannesburg, South Africa) through a licenced local supplier, Shalom Laboratories and Supplies, South Africa. Antioxidant absorbance were measured on a 680-Bio-Rad Microplate Reader (Serial Number 14966, Irvine, CA, USA), while the anti-elastase activity was monitored on a Perkin Elmer VICTOR Nivo microplate reader ([…]). Isolated compounds were analyzed with a 600 MHz Bruker Biospin GmbH spectrometer (Bruker, Rheinstetten, Germany) and a 400 MHz VARIAN NMR spectrometer (Agilent Technologies Inc., Santa Clara, CA, USA). Chemical shift (δ) was recorded in part per million (ppm). The spectrum range was set at 0–14 ppm for 1H NMR, while that of ^13C NMR was set at 0–220 ppm. Tetramethyl silane was used as the internal standard and compounds were read in deuterated chloroform and benzene, as well as benzene-d6 in trifluorotoluene (TFT). High-resolution mass spectrometry (HRMS) was performed with a Waters API Q-TOF Ultima spectrometer (Waters Corporation, Manchester, UK) situated in Stellenbosch University, Stellenbosch, South Africa. […]
The ability of each isolated compound to inhibit porcine pancreatic elastase (PPE) (Sigma) was determined by measuring the release of p-nitroaniline from N-succinyl-ala-ala-ala-p-nitroanilide spectrophotometrically at 405nm according to the method of Bieth et al. and modified according to the method of Fibrich et al.. The reaction mixture contained 100mM Tris buffer (pH 8.0), 0.5M HCl; the test sample was serially diluted in DMSO to yield seven concentrations ([…]) to which PPE ([…]) was added and incubated for 15 min, followed by the addition of N-succinyl-ala-ala-ala-p-nitroanilide (4mM). The change in the absorbance of the reaction mixture was measured for 15 min, from which the rate was obtained. One unit of elastastolytic activity is defined as the release of 1 µM of p-nitroaniline/min. Ursolic acid was included as the positive drug control, as well as a vehicle control containing 2% DMSO and two negative controls (one in which no enzyme was added and the other in which no substrate was added). An IC50, or concentration at which 50% of the enzyme activity is inhibited was calculated using GraphPad Prism 4 (GraphPad Software, San Diego, CA, USA).

A short description of assay [2]: DPPH spectrophotometric assay (radical scavenging). Particulars: mean ± SEM, n = 3; 30 min, 37 °C, 515 nm. On the procedure:
This was performed by following a previously reported conventional method, with some modifications. Here, 0.5 mL of 0.1Mm DPPH radical in methanol was added to 0.5 mL of serially diluted CS-isolated compounds and L-ascorbic acid at 100.00, 50.00, 25.00, 12.50 and 6.25 µg/mL concentration range in triplicate. The reaction mixture was incubated in the dark at 37 °C for 30 min. The absorbance was measured at 515 nm on a microplate reader. The percentage inhibition of the radical was calculated thus: % DPPH inhibition=(ABScontrol−ABSsample/ABScontrol)×100 where ABSsample = Absorbance of test sample, while ABScontrol = Absorbance of negative control (2% DMSO).
For orientation: Loss of DPPH colour is used to gauge radical scavenging.

A short description of assay [3]: Nitric oxide (NO) inhibition assay (sodium nitroprusside/Griess). Particulars: mean ± SEM, n = 3; 540 nm. On the procedure: The inhibitory effect of the isolated compounds against the NO radical was investigated using the method described by Jimoh et al.. The compounds were prepared in varying concentrations from 100.00–6.25 µg/mL. They were added to 0.2 Mm (2 mL) of sodium nitroprusside in triplicates.
On the technique in general: Griess reagent forms a coloured azo dye with nitrite.

A short description of assay [4]: Ferric reducing antioxidant power (FRAP) assay. The conditions noted are these: ascorbic acid equivalent; mean ± SEM, n = 3; 700 nm. Here is the method:
The reducing antioxidant capacity of each isolated compound was evaluated according to the method of Kumar and Pandey, with some modifications. The compounds were dissolved in 2% DMSO and added to the mixture containing 0.25 mL of phosphate buffer (0.2 M; pH 6.6) and 0.25 mL of potassium ferricyanide [K3Fe(CN)6] (1% w/v). Standard compounds used were L (+)-Ascorbic acid. The resulting mixture was incubated at 50 °C for 20 min, followed by the addition of 0.25 mL of CCl3COOH (10% w/v) and then centrifuged at 3000 rpm for 10 min. The upper layer of the solution was mixed with 1 mL of 2% DMSO and the same amount and 0.5 mL of FeCl3 (0.1%, w/v). The experiment was conducted in triplicate, and absorbance was measured at 700 nm on a microplate reader against a blank sample of only phosphate buffer. Thus, the ferric reducing power of the isolated compounds at 100.00, 50.00, 25.00, 12.50 and 6.25 µg/mL concentration in methanol were determined as ascorbic acid equivalent (AAE) from the calibration curve of the positive control (L-ascorbic acid).

A further assay relates to egg albumin. As to the kind of experiment: In vitro anti-inflammatory test: egg albumin denaturation (EAD) assay. The assay is classed as biochemical, chicken. On the procedure:
The test was carried out using the egg albumin denaturation assay method reported by Chatterjee et al.. […] The mixture was incubated at 37 °C for 15 min away from direct light and thereafter boiled at 70 °C for 5 min in a thermostatic water bath. The resulting mixture was cooled, and the absorbance was measured at 655 nm on a microplate reader.

From PMC10141076, “Steroids and Fatty Acid Esters from Cyperus sexangularis Leaf and Their Antioxidant, Anti-Inflammatory and Anti-Elastase Properties” (Molecules, 2023) come the findings set out here.

Where “and” joins values, the source holds several entries; their conditions need not be identical. Equal values may be shown once. Marks after values point to notes of the source that are not given here. A value given as a limit tells only on which side of the number the result lay.

T1 sequence (P00772 27-266): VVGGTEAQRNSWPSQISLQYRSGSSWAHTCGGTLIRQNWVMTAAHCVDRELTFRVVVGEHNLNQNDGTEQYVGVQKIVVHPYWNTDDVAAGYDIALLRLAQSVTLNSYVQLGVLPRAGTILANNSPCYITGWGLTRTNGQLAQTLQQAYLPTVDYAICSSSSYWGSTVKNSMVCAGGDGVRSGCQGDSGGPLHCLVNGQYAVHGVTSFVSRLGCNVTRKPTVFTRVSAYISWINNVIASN

By IC50 is commonly meant the concentration needed to halve the response being measured. With `CCCCCCCCCCCCCCCCCC(=O)OCC` [ethyl stearate], in assay [1], the IC50 is more than 160 µM.
`CC[C@H](C=C[C@@H](C)[C@H]1CC[C@H]2[C@@H]3CC=C4CC(O)CC[C@]4(C)[C@H]3CC[C@]12C)C(C)C` (stereo partly shown) [Compound 1, stigmasta-5,22-dien-3-ol]: the “DPPH (IC50 ± SEM)” value in assay [2] is listed as 38.18 ± 2.30 ^bc µg/mL. Moreover, the “NO (IC50 ± SEM)” value in assay [3] is reported as 68.56 ± 4.03 ^bc µg/mL. The FRAP in assay [4] is 303.58 ± 10.33 µgAAE/mg and 303.58 ± 10.33 ^c µgAAE/mg. In addition, the “inhibition of egg albumin denaturation” value with egg albumin (at 6.25 µg/mL (lowest concentration)) is given as 51.03 ± 10.36%; in the assay with egg albumin (at 6.25 µg/mL (lowest concentration), listed as stigmasterol), 50%; in the assay with egg albumin (at 25 µg/mL (median concentration)) it was “up to 70%”. The half-maximal inhibitory concentration (IC50) in assay [1] is more than 121 µM.
Regarding `C=CC(C)C1CCC2C1CCC1C3CCCCC3CCC12` (stereo not shown) [Compound 2, 17-(1-methyl-allyl)-hexadecahydro-cyclopenta[a] phenanthrene], the “DPPH (IC50 ± SEM)” value in assay [2] is on record as 57.63 ± 1.62 ^e µg/mL. In addition, the “NO (IC50 ± SEM)” value in assay [3] was 105.73 ± 7.48 ^d µg/mL. The FRAP in assay [4] is 196.21 ± 13.79 ^a µgAAE/mg. Also, the “inhibition of egg albumin denaturation, rank in words” value with egg albumin (across all concentrations (100–6.25 µg/mL), p < 0.05) was “least active among all the compounds tested”. In assay [1], the IC50 is more than 349 µM.
With `O=C1O[C@H]([C@@H](O)CO)C(O)=C1O` [ASC, L-ascorbic acid, reference compound], the “DPPH (IC50 ± SEM)” value in assay [2] is on record as 8.92 ± 1.26 ^a µg/mL. For the same compound, the “NO (IC50 ± SEM)” value in assay [3] is reported as 21.89 ± 1.32 ^a µg/mL.
For the compound `CC[C@H](CC[C@@H](C)[C@H]1CC[C@H]2[C@@H]3CC=C4C[C@@H](O)CC[C@]4(C)[C@H]3CC[C@]12C)C(C)C` [Compound 3, β-sitosterol], the IC50 in assay [1] is more than 121 µM.
For `CCCCCCCCCCCCCCCCCC(=O)OCC` [Compound 6, ethyl stearate], the “DPPH (IC50 ± SEM)” value in assay [2] was 49.86 ± 2.29 ^d µg/mL. Besides, the “NO (IC50 ± SEM)” value in assay [3] is on record as 95.99 ± 4.93 ^d µg/mL. Besides, the FRAP in assay [4] is on record as 190.92 ± 11.68 ^a µgAAE/mg. In addition, in the assay with egg albumin (at concentrations above 6.25 µg/mL), the “inhibition of egg albumin denaturation, rank in words” value is given as “least activity among the fatty acid compounds”. Further, the IC50 in assay [1] was not below 160 µM.
As for `C[C@H]1[C@H](C)CC[C@]2(C(=O)O)CC[C@]3(C)C(=CC[C@@H]4[C@@]5(C)CC[C@H](O)C(C)(C)[C@@H]5CC[C@]43C)[C@H]12` [Ursolic acid, ursolic acid, reference compound], in assay [1], the IC50 was 54.3 µM.
Take `CCCCCCCCCCCCCCCCCCC(=O)OCC` [Compound 5, ethyl nonadecanoate]: the “DPPH (IC50 ± SEM)” value in assay [2] was 43.82 ± 1.44 ^c µg/mL. Also, in assay [3], the “NO (IC50 ± SEM)” value is listed as 69.74 ± 3.06 ^bc µg/mL. In assay [4], the FRAP is 243.40 ± 19.72 ^b µgAAE/mg. Besides, the half-maximal inhibitory concentration (IC50) in assay [1] is not below 153 µM.
For the compound `CCCCCCCCCCCCCCCCCCC(=O)OCC` [ethyl nonadecanoate], the concentration for half-maximal inhibition (IC50) in assay [1] is more than 153 µM.
On to `CCCCCCCCCCCC(=O)O` [Compound 4, dodecanoic acid], for which, in assay [2], the “DPPH (IC50 ± SEM)” value was 35.99 ± 2.13 ^b µg/mL. For the same compound, the “NO (IC50 ± SEM)” value in assay [3] is 65.04 ± 3.20 ^b µg/mL. Also, the FRAP in assay [4] is recorded as 245.94 ± 22.81 ^b µgAAE/mg. Also, the IC50 in assay [1] was more than 250 µM.
